# In patent US11285130B2, “Treatment of mitochondrial diseases” (Khondrion IP B.V., priority 2017, dated 2022):
# Where two headings read alike, the source gives them in different places.
# Legend:
# [1] = system: primary human fibroblasts from patients with Leigh syndrome; assay: Oxidative stress-induced cell death (BSO) assay, Leigh patient fibroblasts; type: cell-based; conditions: Homo sapiens, in vitro fibroblast assays (Redox assay), fibroblast type not given, values match Leigh
# Source text: (§1) To determine the effective concentration of the compounds (the concentrations that protect patient cells against oxidative stress-induced cell death) the applicant established an assay using stressed primary human fibroblasts from patients with Leigh syndrome, MELAS or LHON diseases. Utilising the inherent oxidative stress of fibroblasts from patients with mitochondrial disease, their oxidative burden was further increased by depleting cellular glutathione with an inhibitor of glutathione synthesis, L-buthionine-(S,R)-sulfoximine (BSO). […] Cells were seeded at a density of 3000 cells/well in a 96-well format and incubated with increasing concentrations of compounds in combination with BSO (100 μM, Sigma-aldrich). One day after treatment, the cells were washed twice and stained with a solution of 5 μM calcein-AM (Life technologies C3100MP) during 25 min in 199 medium without phenol red (Life technologies, 11043-023) at room temperature. After 2 washes with PBS (Phosphate buffered saline) the plate was read on a fluorescence plate reader (Fluostar Omega, BMG labtech) and the percentage of cell viability determined as a function of fluorescence intensity.
# [2] = system: primary human fibroblasts from patients with MELAS; assay: Oxidative stress-induced cell death (BSO) assay, MELAS patient fibroblasts; type: cell-based; conditions: Homo sapiens, Fibroblast; fibroblasts derived from MELAS patients, 100 μM BSO; unit as printed for KH176; read-out: EC50, protection from oxidative stress-induced cell death
# Source text: as §1
# [3] = SAD study pharmacokinetic analysis; type: in vivo, human; conditions: for AUC(0-t) / Cmax / Tmax / AUC(0-inf) / half-life: male, human, plasma, oral; for AUC(0-t): read-out: AUClast (Geomean); for Cmax: read-out: Cmax (Geomean); for AUC(0-inf): read-out: AUC0-inf (Geomean)
# Protocol: Dose escalation to the next dose level was done after evaluation of the safety and the first 24-hour pharmacokinetic results of the previous dose. […] Anticipated exposures at this starting dose were just below the Minimum Anticipated Biological Effect Level (MABEL). Placebo (an in taste and appearance matching oral liquid) was also administered orally on one occasion in the single-ascending dose part and b.i.d. for 7 Days in the MAD part. […] All samples were stored at <-70° C. until analysis. […] For mean value calculations, all values below the limit of quantification (LOQ) were set to zero. […] The non-compartmental pharmacokinetic analysis was performed using Phoenix, Version 6.3 (Pharsight Corporation, Mountain View, Calif., USA). […] The PK parameters were calculated on the basis of the actual blood sampling time points relative to dosing. Selected pharmacokinetic parameters (Cmax, tmax, t1/2, AUClast and AUC0-int) following single-dose administration and selected pharmacokinetic parameters Cmax, tmax, [NT], the accumulation factor (Racc) and time to reach steady state) following multiple dose administration were determined. In urine, the percentage of dose excreted in urine was determined for the single- and multiple-dose administration.
# [4] = Pharmacodynamic analysis of oxidized and reduced glutathione, MAD study; type: in vivo, human; conditions: Day 7, blood
# Protocol: Blood samples for pharmacodynamic analyses were taken pre-dose and at 3, 6 and 24 h post dosing at Day 7 (MAD). All samples were stored in −80° C. until analysis. Quantification of oxidized and reduced glutathione was performed at York Bioanalytical solutions using a previously described validated method (Moore T et al, J Chromatogr B Analyt Technol Biomed Life Sci 2013, 929:51-55). Change from baseline in the concentrations of oxidized and reduced glutathione (GSH/GSSG) was calculated.
# [5] = male, human, in vivo, 28 days
# [6] = male, human, in vivo, 7 days
# [7] = SAD study safety and tolerability (adverse events), healthy male volunteers
# [8] = 10 mg, SAD, KH176 10 mg, fasted
# [9] = 30 mg, SAD, KH176 30 mg, fasted
# [10] = 100 mg, SAD, KH176 100 mg, fasted
# [11] = 300 mg, SAD, KH176 300 mg, fasted
# [12] = 800 mg, SAD, KH176 800 mg, fasted
# [13] = 2000 mg, SAD, KH176 2000 mg, fasted
compound,measurement,setting,value
"Cc1c(C)c2c(c(C)c1O)CC[C@@](C)(C(=O)N[C@@H]1CCCNC1)O2.Cl [KH176, (S)-6-hydroxy-2,5,7,8-tetramethyl-N-((R)-piperidin-3-yl)chroman-2-carboxamide hydrochloride]",EC50,[1]; read-out: EC50,182 nM
same,EC50,[1]; read-out: EC50 expressed,~0.06 µg/mL
same,EC50,[2],182 nM
same,"AUC0-inf ratio (fed/fasted), 90% CI","[3]; 100 mg, fed versus fasted",1.28 (90% Cl 1.12-1.45)
same,administered dose excreted in urine as unchanged KH176,[3]; SAD,approximately 12%
same,AUC(0-t),[3]; [8],75 ng·h/mL
same,Cmax,[3]; [8],12.9 ng/mL
same,Tmax,"[3]; 10 mg, SAD, KH176 10 mg, fasted, read-out: tmax* (median)",1.25 h
same,AUC(0-inf),[3]; [9],474 ng·h/mL
same,AUC(0-t),[3]; [9],389 ng·h/mL
same,Cmax,[3]; [9],56.2 ng/mL
same,half-life,"[3]; 30 mg, SAD, KH176 30 mg, fasted, read-out: t1/2 (Geomean) (converted)",10.3 h
same,Tmax,"[3]; 30 mg, SAD, KH176 30 mg, fasted, read-out: tmax* (median)",1.25 h
same,AUC(0-inf),[3]; [10],1540 ng·h/mL
same,AUC(0-t),[3]; [10],1310 ng·h/mL
same,Cmax,[3]; [10],167 ng/mL
same,half-life,"[3]; 100 mg, SAD, KH176 100 mg, fasted, read-out: t1/2 (Geomean) (converted)",9.1 h
same,Tmax,"[3]; 100 mg, SAD, KH176 100 mg, fasted, read-out: tmax* (median)",1 h
same,AUC(0-inf),"[3]; 100 mg, SAD, KH176 100 mg, fed",1970 ng·h/mL
same,AUC(0-t),"[3]; 100 mg, SAD, KH176 100 mg, fed",1650 ng·h/mL
same,Cmax,"[3]; 100 mg, SAD, KH176 100 mg, fed",165 ng/mL
same,half-life,"[3]; 100 mg, SAD, KH176 100 mg, fed, read-out: t1/2 (Geomean) (converted)",9.09 h
same,Tmax,"[3]; 100 mg, SAD, KH176 100 mg, fed, read-out: tmax* (median)",2.5 h
same,Tmax,"[3]; 100 mg, fasted condition (100 mg), read-out: median tmax",~1 h
same,Tmax,"[3]; 100 mg, fed condition (100 mg, high calorie/high fat breakfast), read-out: median tmax",2.5 h
same,AUC(0-inf),[3]; [11],7500 ng·h/mL
same,AUC(0-t),[3]; [11],6320 ng·h/mL
same,Cmax,[3]; [11],766 ng/mL
same,half-life,"[3]; 300 mg, SAD, KH176 300 mg, fasted, read-out: t1/2 (Geomean) (converted)",9.64 h
same,Tmax,"[3]; 300 mg, SAD, KH176 300 mg, fasted, read-out: tmax* (median)",0.992 h
same,AUC(0-inf),[3]; [12],25800 ng·h/mL
same,AUC(0-t),[3]; [12],21000 ng·h/mL
same,Cmax,[3]; [12],2170 ng/mL
same,half-life,"[3]; 800 mg, SAD, KH176 800 mg, fasted, read-out: t1/2 (Geomean) (converted)",9.8 h
same,Tmax,"[3]; 800 mg, SAD, KH176 800 mg, fasted, read-out: tmax* (median)",1.5 h
same,AUC(0-inf),[3]; [13],79100 ng·h/mL
same,AUC(0-t),[3]; [13],61200 ng·h/mL
same,Cmax,[3]; [13],5990 ng/mL
same,half-life,"[3]; 2000 mg, SAD, KH176 2000 mg, fasted, read-out: t1/2 (Geomean) (converted)",11.5 h
same,Tmax,"[3]; 2000 mg, SAD, KH176 2000 mg, fasted, read-out: tmax* (median)",0.75 h
same,Tmax,"[3]; SAD, across doses, read-out: median tmax",0.75 to 1.5 h
same,half-life,"[3]; SAD, approximate, across dose groups, read-out: t1/2 (converted)",~10 h
same,Tmax,"[3]; single- and multiple-dose administration, read-out: median tmax",0.75 to 2 h
same,"GSH/GSSG ratio, change from baseline",[4],No significant alterations
same,AEs rated mild in severity,[5],35
same,AEs reported by subjects in the highest dose group,[5],28
same,moderate AEs,[5],6
same,severe AEs,[5],2
same,subjects reporting AEs,[5],14 subjects
same,total adverse events (AEs) reported,[5],43
same,AEs rated mild in severity,[6],27
same,moderate AEs,[6],2
same,subjects reporting AEs,[6],10 subjects
same,TEAE: Influenza like illness (subjects),[7]; SAD 10 mg (N = 4),0 n (%)
same,TEAE: Influenza like illness (subjects),[7]; SAD 30 mg (N = 4),0 n (%)
same,TEAE: Influenza like illness (subjects),[7]; SAD 100 mg (N = 4),0 n (%)
same,TEAE: Influenza like illness (subjects),[7]; SAD 100 mg + Food (N = 4),0 n (%)
same,TEAE: Influenza like illness (subjects),[7]; SAD 300 mg (N = 4),0 n (%)
same,TEAE: Influenza like illness (subjects),[7]; SAD 800 mg (N = 6),0 n (%)
same,TEAE: Influenza like illness (subjects),[7]; SAD 2000 mg (N = 4),0 n (%)
